Experimental data reported in US20200061007A1, “CANCER STEM CELL PROLIFERATION INHIBITOR” (NATIONAL INSTITUTE OF ADVANCED INDUSTRIAL SCIENCE AND …, priority 2014, published 2020).
pIC50: −log10 of the molar value.

Legend:
[1] = system: Human Pancreatic Cancer Cell Panc-1 Spheroids; experiment: CD24+/CD44+/ESA+ cells by flow cytometry in Panc-1 spheroids; assay type: cell-based
Source text: Pancreatic cancer cells prepared by performing suspension culture in the presence of Am80 for 1 week was subjected to analysis of expression of cancer stem cell surface markers at the protein level by flow cytometry using fluorescence-labeled primary antibodies.

[2] = system: human pancreatic cancer cells containing pancreatic cancer stem cells; experiment: Growth of subcutaneously transplanted pancreatic cancer in nude mice; assay type: in vivo; conditions: Am80 3 mg/kg/day for 1 month, vs control
Procedure: (§1) Pancreatic cancer cells (1×10^6 cells) containing pancreatic cancer stem cells were subcutaneously transplanted to nude mice. Mice in which tumor formation was found 2 weeks later were subjected to administration of Am80 for 1 month at 3 mg/kg/day.
Pancreatic cancer cells (1×10^6 cells) containing pancreatic cancer stem cells were subcutaneously transplanted to nude mice. Mice in which tumor formation was found 2 weeks later were subjected to daily administration of Am80 at 3 mg/kg/day and administration of gemcitabine at 50 mg/kg at intervals of 3 days for 1 month. […] Gem herein represents gemcitabine.
Pancreatic cancer cells (1×10^6 cells) containing pancreatic cancer stem cells were subcutaneously transplanted to nude mice. Mice in which tumor formation was found 2 weeks later were subjected to daily administration of Am80 at 3 mg/kg/day and administration of VPA at 500 mg/kg at intervals of 3 days for 1 month.

[3] = system: human pancreatic cancer cells subcutaneously transplanted to nude mice; experiment: Pathologic samples of tumor, morphology of cellular tissue; assay type: in vivo; conditions: Am80 3 mg/kg/day for 1 month, vs control
Procedure: as §1, with “mg/kg/day. Pathologic samples of each tumor were prepared to evaluate morphology of cellular tissue.” for “mg/kg/day.”

[4] = system: human prostate cancer cell line LNCaP; experiment: Tumor volume, LNCaP/nude mice; assay type: in vivo
Procedure: A tumor piece of a human prostate cancer cell line LNCaP containing cells positive for cancer stem cell markers was subcutaneously transplanted to the dorsal part of each of 6-week-old female BALB/cAJc1-nu nude mice (4 mice/group) using a trocar needle. At the time when the tumor volume reached 100 to 200 mm^3, the administration was started. Am80 was orally administered once a day at a dose of 1 mg/kg for 21 continuous days, and DXL was intravenously administered at a dose of 5 mg/kg from Day 1, 3 times at intervals of 4 days. In the combination group, the agents were administered at the same doses as, and by the same administration methods as, those in the cases of administration of each single agent. Measurement of the tumor diameter was carried out until the next day of the completion of the administration (Day 22). The longitudinal diameter and the transverse diameter of the tumor were measured using a caliper, and the tumor volume (mm^3) was determined according to the following formula: longitudinal diameter×transverse diameter^2/2. In the control group, physiological saline was intraperitoneally administered from Day 1, 3 times at intervals of 4 days.

[5] = system: human pancreatic cancer cells MIA-Paca2; experiment: Tumor volume, MIA-Paca2/nude mice; assay type: in vivo
Procedure: A tumor piece of human pancreatic cancer cells MIA-Paca2 containing cells positive for cancer stem cell markers was subcutaneously transplanted to the dorsal part of each of 6-week-old female BALB/cAJc1-nu nude mice (4 mice/group, 5 mice only for the control group) using a trocar needle. At the time when the tumor volume reached 100 to 200 mm^3, the administration was started. Am80 was orally administered once a day at a dose of 2 mg/kg for 21 continuous days, and DXL was intravenously administered at a dose of 5 mg/kg from Day 1, 3 times at intervals of 4 days. In the combination group, the agents were administered at the same doses as, and by the same administration methods as, those in the cases of administration of each single agent. Measurement of the tumor diameter was carried out until the next day of the completion of the administration (Day 22). Based on the measured values of the longitudinal diameter and the transverse diameter, the tumor volume (mm^3) was determined according to the following formula: longitudinal diameter×transverse diameter^2/2. In the control group, physiological saline was intraperitoneally administered from Day 1, 3 times at intervals of 4 days.

[6] = system: Pdx1, glucagon gene expression in human pancreatic cancer cell spheroids; experiment: Quantitative RT-PCR of pancreatic tissue differentiation markers; assay type: cell-based; conditions: suspension culture with Am80 for 1 week
Procedure: Subsequently, total RNA was extracted from pancreatic cancer cells prepared by performing suspension culture in the presence of Am80 for 1 week, and quantitative RT-PCR was carried out using primers specific to pancreatic tissue-specific differentiation markers.

[7] = system: Human Leukemia Cell Line Kasumi-1; experiment: Growth inhibition of Kasumi-1, isobologram; assay type: cell-based; conditions: Homo sapiens; Kasumi-1, RPMI1640 with 20% FBS
Procedure: A human leukemia cell line Kasummi-1, containing cells positive for cancer stem cell markers, was cultured in RPMI1640 medium supplemented with 20% FBS, and the growth inhibitory action by the combination of Am80 and 5-AZ was studied using Isobologram. […] These concentrations were taken as 1.0, and the points corresponding to 1.0 in the two axes were connected to each other via a straight line. In cases where the ratio observed for the combination effect is on the line, the effect is additive, and, in cases where the ratio is below the line, the effect is synergistic.

[8] = system: human pancreatic cancer cell line Panc-1 cell clusters; experiment: Growth of human pancreatic cancer cell spheroids in suspension culture; assay type: cell-based
Procedure: Culturing of a human pancreatic cancer cell line in DMEM/F12 medium supplemented with B27, 20 ng/mL EGF, 20 ng/mL bFGF, and 4 μg/mL heparin using a low-adhesion dish allows formation of cell clusters, and the cells can be cultured in a suspended state. Under these conditions, the cells can be cultured such that they show increased levels of several cancer stem cell markers as well as markers reported for other cancers. First, the cell clusters containing the cells positive for the cancer stem cell markers were cultured in a medium supplemented with Am80 for 1 week, and the influences of Am80 on the growth of cell clusters and the expression levels of the cancer stem cell markers were analyzed.

[9] = Body weight of tumor-bearing nude mice; assay type: in vivo; conditions: Am80 3 mg/kg/day for 1 month
Procedure: as §1

[10] = suspension culture with Am80 for 1 week

pIC50 [7]: 6.00
SMILES: CC1(C)CCC(C)(C)c2cc(NC(=O)c3ccc(C(=O)O)cc3)ccc21 [Am80, tamibarotene]
abundance of cells positive for CD24+/CD44+/ESA+ ([1]; 10 μM Am80, suspension culture 1 week): reduced by half
abundance of cells positive for CD24+/CD44+/ESA+ ([1]; addition of Am80, suspension culture 1 week): significantly decreased
growth of the pancreatic cancer [2]: could be suppressed in vivo compared to the control
morphology of pancreatic cancer tissue [3]: differentiated morphology
tumor volume Day 1 ([4]; Am80 1 mg/kg oral daily 21 days, DXL 5 mg/kg i.v. 3 times at intervals of 4 days, Day 1): 121.3 mm^3
tumor volume Day 5 ([4]; Am80 1 mg/kg oral daily, DXL 5 mg/kg i.v., Day 5): 162.1 mm^3
tumor volume Day 9 ([4]; Am80 1 mg/kg oral daily, DXL 5 mg/kg i.v., Day 9): 205.8 mm^3
tumor volume Day 13 ([4]; Am80 1 mg/kg oral daily, DXL 5 mg/kg i.v., Day 13): 282.8 mm^3
tumor volume Day 17 ([4]; Am80 1 mg/kg oral daily, DXL 5 mg/kg i.v., Day 17): 409.9 mm^3
tumor volume Day 22 ([4]; Am80 1 mg/kg oral daily, DXL 5 mg/kg i.v., Day 22): 436.3 mm^3
tumor volume Day 1 ([5]; Am80 2 mg/kg oral daily 21 days, DXL 5 mg/kg i.v. 3 times at intervals of 4 days, Day 1): 151.3 mm^3
tumor volume Day 5 ([5]; Am80 2 mg/kg oral daily, DXL 5 mg/kg i.v., Day 5): 182.1 mm^3
tumor volume Day 9 ([5]; Am80 2 mg/kg oral daily, DXL 5 mg/kg i.v., Day 9): 255.5 mm^3
tumor volume Day 13 ([5]; Am80 2 mg/kg oral daily, DXL 5 mg/kg i.v., Day 13): 348.8 mm^3
tumor volume Day 17 ([5]; Am80 2 mg/kg oral daily, DXL 5 mg/kg i.v., Day 17): 429.9 mm^3
tumor volume Day 22 ([5]; Am80 2 mg/kg oral daily, DXL 5 mg/kg i.v., Day 22): 466.4 mm^3
gene expression of Pdx1, glucagon and the like [6]: increased gene expression dependently on the Am80 concentration
sizes of the cell clusters ([8]; cultured for a total of 2 weeks in Am80-containing medium): further decreased
growth of the cell clusters [8, 10]: suppressed dependently on the concentration
number of cells [8, 10]: decreased dependently on the concentration
body weight [9]: not influenced
